Results on three compounds are retold here after publication PMC6128854 (Scientific Reports, 2018).

Positions of bridges follow the written chain, without caps; N, C: chain ends. Non-standard residues stand in square brackets, D forms with d. Residues, ends and D or L forms follow the SMILES beside them. Hyp = O=C(O)[C@@H]1C[C@@H](O)CN1

Experiment [1] addresses Cav2.2 in human SH-SY5Y cell membranes (Homo sapiens, UniProt Q00975). The experiment can be described thus: biochemical. It counts as binding. To be noted: SEM.
The target in experiment [2] is hCav2.2 (Homo sapiens, UniProt Q00975). The experiment can be described thus: cell-based. The settings on record: SEM.
Sequence of hCav2.2 (Q00975 whole entry, looked up): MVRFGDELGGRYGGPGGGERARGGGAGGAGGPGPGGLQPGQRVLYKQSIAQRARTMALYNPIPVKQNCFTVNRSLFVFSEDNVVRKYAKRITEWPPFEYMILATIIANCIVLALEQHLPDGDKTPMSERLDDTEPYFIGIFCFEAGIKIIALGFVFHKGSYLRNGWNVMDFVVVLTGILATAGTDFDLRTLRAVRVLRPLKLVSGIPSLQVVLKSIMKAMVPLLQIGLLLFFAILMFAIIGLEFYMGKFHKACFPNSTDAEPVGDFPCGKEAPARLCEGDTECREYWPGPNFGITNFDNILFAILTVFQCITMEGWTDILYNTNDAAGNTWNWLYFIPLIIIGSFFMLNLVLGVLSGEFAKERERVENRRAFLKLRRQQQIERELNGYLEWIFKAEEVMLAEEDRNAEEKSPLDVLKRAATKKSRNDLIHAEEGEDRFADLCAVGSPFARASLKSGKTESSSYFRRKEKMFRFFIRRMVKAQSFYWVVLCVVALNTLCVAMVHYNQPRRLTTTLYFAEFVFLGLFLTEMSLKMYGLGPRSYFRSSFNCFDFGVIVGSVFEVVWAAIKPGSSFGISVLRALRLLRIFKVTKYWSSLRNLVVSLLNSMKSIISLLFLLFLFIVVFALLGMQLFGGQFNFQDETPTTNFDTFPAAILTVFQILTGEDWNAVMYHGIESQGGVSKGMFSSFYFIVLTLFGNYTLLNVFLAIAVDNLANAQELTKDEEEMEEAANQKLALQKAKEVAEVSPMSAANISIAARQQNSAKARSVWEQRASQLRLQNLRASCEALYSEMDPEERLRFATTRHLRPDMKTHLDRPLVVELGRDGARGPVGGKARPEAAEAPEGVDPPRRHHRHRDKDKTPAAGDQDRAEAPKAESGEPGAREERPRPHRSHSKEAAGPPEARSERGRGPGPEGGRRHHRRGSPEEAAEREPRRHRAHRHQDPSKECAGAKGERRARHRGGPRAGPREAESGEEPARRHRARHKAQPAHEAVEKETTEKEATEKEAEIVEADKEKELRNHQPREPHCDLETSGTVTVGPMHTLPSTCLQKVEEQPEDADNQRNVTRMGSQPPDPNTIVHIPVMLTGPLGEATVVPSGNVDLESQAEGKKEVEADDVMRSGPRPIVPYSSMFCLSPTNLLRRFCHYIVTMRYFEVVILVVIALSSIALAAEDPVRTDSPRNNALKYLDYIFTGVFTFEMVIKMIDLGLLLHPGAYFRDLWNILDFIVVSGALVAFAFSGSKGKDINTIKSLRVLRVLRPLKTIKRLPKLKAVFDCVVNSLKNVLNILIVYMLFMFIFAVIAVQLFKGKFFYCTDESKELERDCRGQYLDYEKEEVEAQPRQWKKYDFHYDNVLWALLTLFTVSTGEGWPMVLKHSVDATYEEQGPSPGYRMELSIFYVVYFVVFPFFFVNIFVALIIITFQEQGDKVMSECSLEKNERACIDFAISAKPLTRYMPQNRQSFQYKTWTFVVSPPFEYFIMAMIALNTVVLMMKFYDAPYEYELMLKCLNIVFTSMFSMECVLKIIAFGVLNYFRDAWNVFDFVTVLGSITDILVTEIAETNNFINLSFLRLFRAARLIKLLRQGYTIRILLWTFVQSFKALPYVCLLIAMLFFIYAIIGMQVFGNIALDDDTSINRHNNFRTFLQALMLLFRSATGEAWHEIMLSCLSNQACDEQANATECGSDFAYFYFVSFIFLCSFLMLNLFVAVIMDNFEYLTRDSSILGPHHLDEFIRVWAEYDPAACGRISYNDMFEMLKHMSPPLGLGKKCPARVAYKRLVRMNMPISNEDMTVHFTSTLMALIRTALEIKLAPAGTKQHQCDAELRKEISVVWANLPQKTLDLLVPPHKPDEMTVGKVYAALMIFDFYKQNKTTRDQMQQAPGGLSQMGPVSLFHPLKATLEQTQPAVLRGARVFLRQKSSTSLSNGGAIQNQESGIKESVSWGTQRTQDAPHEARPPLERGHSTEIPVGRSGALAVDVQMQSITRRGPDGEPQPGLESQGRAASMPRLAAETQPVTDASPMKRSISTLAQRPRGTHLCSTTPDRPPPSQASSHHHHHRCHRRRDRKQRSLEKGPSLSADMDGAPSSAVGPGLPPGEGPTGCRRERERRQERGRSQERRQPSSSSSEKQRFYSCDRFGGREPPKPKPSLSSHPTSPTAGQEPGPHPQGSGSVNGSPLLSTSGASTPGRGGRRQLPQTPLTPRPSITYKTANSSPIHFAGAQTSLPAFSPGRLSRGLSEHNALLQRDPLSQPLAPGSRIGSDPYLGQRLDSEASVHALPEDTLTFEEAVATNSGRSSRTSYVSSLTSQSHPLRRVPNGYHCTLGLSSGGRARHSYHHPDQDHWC

Sequence of Cav2.2 in human SH-SY5Y cell membranes (Q00975 whole entry, looked up): as above

As for `C[C@@H](O)[C@@H]1NC(=O)[C@H](Cc2ccc(O)cc2)NC(=O)[C@@H]2C[C@@H](O)CN2C(=O)[C@H](CC(N)=O)NC(=O)[C@@H]2CSSC[C@@H]3NC(=O)[C@H](CO)NC(=O)[C@H](CO)NC(=O)CNC(=O)[C@@H]4C[C@@H](O)CN4C(=O)[C@H](CO)NC(=O)[C@H](CCCCN)NC(=O)[C@@H](N)CSSC[C@H](NC(=O)[C@H](CSSC[C@@H](C(=O)N[C@@H](Cc4ccc(O)cc4)C(N)=O)NC(=O)[C@H](CCCN=C(N)N)NC(=O)[C@H](CCCCN)NC1=O)NC(=O)[C@H](CC(N)=O)NC(=O)[C@H](Cc1ccc(O)cc1)NC(=O)[C@H](CO)NC(=O)[C@H]([C@@H](C)O)NC(=O)[C@@H]1C[C@@H](O)CN1C(=O)[C@H](CO)NC3=O)C(=O)N[C@@H](CCCN=C(N)N)C(=O)N[C@@H](CO)C(=O)N2` [GVIA, reference compound], the figures for the IC50 in experiment [1] and in experiment [2] were 0.078 ± 0.012 nM and 170 ± 25 nM, respectively.

Turning to `CC[C@H](C)[C@@H]1NC(=O)[C@@H]2CSSC[C@@H]3NC(=O)[C@H](CCCCN)NC(=O)[C@H](CO)NC(=O)CNC(=O)[C@@H]4C[C@@H](O)CN4C(=O)[C@@H]4CCCN4C(=O)[C@H](CCCCN)NC(=O)[C@@H](N)CSSC[C@H](NC(=O)[C@H](CSSC[C@@H](C(=O)N[C@@H](CCCNC(=N)N)C(=O)N[C@@H](CCCCN)C(=O)N[C@@H](Cc4ccc(O)cc4)C(=O)N[C@@H](Cc4ccc(O)cc4)C(=O)N[C@@H](CC(N)=O)C(=O)O)NC(=O)[C@H](CCCNC(=N)N)NC(=O)[C@H](CCCCN)NC(=O)[C@H]([C@@H](C)O)NC(=O)[C@H](Cc4ccc(O)cc4)NC(=O)[C@H](CO)NC1=O)NC(=O)[C@H](CC(=O)O)NC(=O)[C@H](CCCNC(=N)N)NC(=O)[C@H](CCSC)NC(=O)[C@H](CO)NC(=O)[C@@H]1C[C@@H](O)CN1C(=O)[C@H](CO)NC3=O)C(=O)N[C@@H]([C@@H](C)O)C(=O)N[C@@H]([C@@H](C)O)C(=O)N2` [MoVIA] (H-CKP[Hyp]GSKCS[Hyp]SMRDCCTTCISYTKRCRKYYN-OH; disulfide 1-16, 8-19, 15-26), the figures for the IC50 in experiment [1] and in experiment [2] were 0.035 ± 0.017 nM and 330 ± 18 nM, respectively.

Regarding `CC[C@H](C)[C@@H]1NC(=O)[C@@H]2CSSC[C@@H]3NC(=O)[C@H](CCCCN)NC(=O)[C@H](CO)NC(=O)CNC(=O)[C@@H]4C[C@@H](O)CN4C(=O)[C@@H]4CCCN4C(=O)[C@H](CCCCN)NC(=O)[C@@H](N)CSSC[C@H](NC(=O)[C@H](CSSC[C@@H](C(=O)N[C@@H](CCCNC(=N)N)C(=O)N[C@@H](CCCCN)C(=O)N[C@@H](Cc4ccc(O)cc4)C(=O)N[C@@H](Cc4ccc(O)cc4)C(=O)O)NC(=O)[C@H](CCCNC(=N)N)NC(=O)[C@H](CCCCN)NC(=O)[C@H]([C@@H](C)O)NC(=O)[C@H](Cc4ccc(O)cc4)NC(=O)[C@H](CO)NC1=O)NC(=O)[C@H](CC(=O)O)NC(=O)[C@H](CCCNC(=N)N)NC(=O)[C@H](CCSC)NC(=O)[C@H](CO)NC(=O)[C@@H]1C[C@@H](O)CN1C(=O)[C@H](CO)NC3=O)C(=O)N[C@@H]([C@@H](C)O)C(=O)N[C@@H]([C@@H](C)O)C(=O)N2` [MoVIB] (H-CKP[Hyp]GSKCS[Hyp]SMRDCCTTCISYTKRCRKYY-OH; disulfide 1-16, 8-19, 15-26), the IC50 worked out at 0.365 ± 0.204 nM in experiment [1] and 600 ± 120 nM in experiment [2].

Usually IC50 stands for the concentration at which inhibition is half-maximal. A lower IC50 goes with greater potency in that assay.
